Test results from ChEMBL document CHEMBL1146129, “First dual M3 antagonists-PDE4 inhibitors: synthesis and SAR of 4,6-diaminopyrimidine derivatives” (Bioorg Med Chem Lett, 2006).

Legend:
[1] = target: T1, Muscarinic acetylcholine receptor M3 (Homo sapiens, UniProt P20309); assay: biochemical; assay type: cell-based, CHO
Target sequence in this assay (P20309 whole entry): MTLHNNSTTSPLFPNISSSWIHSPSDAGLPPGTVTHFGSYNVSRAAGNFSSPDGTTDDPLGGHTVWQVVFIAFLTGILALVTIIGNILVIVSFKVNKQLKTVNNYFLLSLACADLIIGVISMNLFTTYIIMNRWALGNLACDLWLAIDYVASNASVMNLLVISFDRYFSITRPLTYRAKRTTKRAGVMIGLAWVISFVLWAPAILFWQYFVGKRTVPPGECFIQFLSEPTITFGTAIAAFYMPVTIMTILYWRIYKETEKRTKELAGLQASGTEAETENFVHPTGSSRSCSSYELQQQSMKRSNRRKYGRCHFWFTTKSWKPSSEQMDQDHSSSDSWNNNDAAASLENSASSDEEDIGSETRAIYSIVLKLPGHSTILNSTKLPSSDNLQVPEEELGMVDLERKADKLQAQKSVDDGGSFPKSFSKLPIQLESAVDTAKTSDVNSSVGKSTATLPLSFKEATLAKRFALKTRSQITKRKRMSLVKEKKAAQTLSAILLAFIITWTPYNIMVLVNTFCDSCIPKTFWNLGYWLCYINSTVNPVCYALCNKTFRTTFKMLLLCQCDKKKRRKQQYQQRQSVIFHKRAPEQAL

[2] = target: Phosphodiesterase 4 (Homo sapiens, UniProt P27815+Q08499+Q07343+Q08493); assay type: functional, cell-based; details: u-937
Description: Inhibition of PDE4 activity in U937 cells

[3] = buffer, pH 7.4
[4] = target: T1, Muscarinic acetylcholine receptor M3; assay: Displacement of [3H]methylscopolamine from recombinant human muscarinic M3 receptors expressed in CHO cells at 10 um; assay type: cell-based
Target sequence in this assay (P20309 whole entry, looked up): as the sequence (P20309 whole entry) above

[5] = physchem
Description: Dissociation constant, pKa of the compound

SMILES	Ki [1] [µM]	IC50 [2] [µM]	LogK-IAMex [3]	inhibition [4] [%]	pKa [5]
C[C@@H]1C[C@H]1c1nc(NC2CC2)cc(N2CCCCCC2)n1	0.398	2.5	–	–	–
C1CCCN(c2nc(C3CC3)nc3c2CCCCN3)CC1	0.01	1.3	–	–	–
Cc1c(NC2CCC2)nc(C2CC2)nc1N1CCCCCC1	0.0079	2	–	–	–
Cc1c(NC2CC2)nc([C@@H]2C[C@H]2C)nc1N1CCCCCC1	0.032	3.2	–	–	–
Cc1c(NC2CC2)nc(C2CCCC2)nc1N1CCCCCC1	0.079	1.26	–	–	–
CCC1CCN(c2nc(C3CC3)nc(NC3CC3)c2C)CC1	0.05	0.63	3.21	–	–
Fc1c(NC2CC2)nc(C2CC2)nc1N1CCSCC1	–	0.25	–	< 50	5.27
C=C1CCN(c2nc(C3CC3)nc(NC3CC3)c2C)CC1	0.079	0.4	2.7	–	–
Cc1c(NC2CC2)nc(C2CC2)nc1N1CCCCCCC1	0.016	1.6	3.05	–	–
Cc1c(NC2CCCCCC2)nc(C2CC2)nc1NC1CC1	0.398	2	2.98	–	–
Cc1c(NC2CC2)nc(C2CC2)nc1N1CCSCC1	0.079	0.32	2.14	–	6.99
Fc1c(NC2CC2)nc(C2CC2)nc1N1CCCCCC1	0.251	0.63	–	–	6.44
Cc1c(NC2CC2)nc(C2CCC2)nc1N1CCCCCC1	0.04	2	–	–	–
Cc1c(NC2CC2)nc(C2CC2)nc1N1CCC2(CCCC2)CC1	0.158	0.79	3.66	–	–
CCc1c(NC2CC2)nc(C2CC2)nc1N1CCSCC1	0.1	1.6	–	–	6.78
Cc1c(NC2CC2)nc(C(C)C)nc1N1CCCCCC1	0.025	2.5	–	–	–
Cc1c(NC2CC2)nc(C2CC2)nc1N1CCC(C(F)(F)F)CC1	0.1	2	2.94	–	–
Cc1c(NC2CC2)nc(C2CC2)nc1N1CC=CCC1	0.032	0.79	2.37	–	–
Cc1c(NCc2cccs2)nc(C2CC2)nc1NC1CC1	0.126	6.3	2.21	–	–
Cc1c(NC2CC2)nc(C2CC2)nc1N1CCC(=O)CC1	3.2	3.2	1.35	–	–
O=[N+]([O-])c1c(NC2CC2)nc(C2CC2)nc1N1CCCCCC1	2.51	1.26	–	–	4.64
Cc1c(NC2CC2)nc(C2CC2)nc1N1CCc2ccccc2C1	0.316	0.5	2.97	–	–
Cc1c(NC2CC2)nc(C2CC2)nc1N1CCCCC1	0.013	0.5	2.5	–	–

SMILES	Ki [1] [µM]	IC50 [2] [µM]	LogK-IAMex [3]	inhibition [4] [%]	pKa [5]
Cc1c(NC2CC2)nc(C2CC2)nc1N1CCC(CO)CC1	0.501	0.63	1.57	–	–
Cc1c(NCc2ccccc2)nc(C2CC2)nc1NC1CC1	0.2	4	2.36	–	–
Cc1c(NC2CCCCC2)nc(C2CC2)nc1NC1CC1	0.316	2.5	2.71	–	–
Cc1c(NC2CC2)nc(C2CC2)nc1N1CCC(C)(C)CC1	0.025	0.32	3.02	–	–
Cc1c(NC2CC2)nc(C2CC2)nc1N1CC2CCC(C2)C1	0.0063	0.5	3.11	–	–
Cc1c(NC2CC2)nc(C2CC2)nc1N1CCC(F)(F)CC1	0.05	0.4	2.5	–	–
Cc1c(NC2CC2)nc(Cc2ccccc2)nc1N1CCCCCC1	0.501	1	–	–	–
C1CCCN(c2nc(C3CC3)nc3c2CCCN3)CC1	0.05	0.5	–	–	–
c1c(NC2CC2)nc(C2CC2)nc1N1CCCCCC1	0.063	0.4	–	–	8.03
Cc1c(NC2CC2)nc(C2CC2)nc1N(C)Cc1ccccc1	0.251	0.4	2.7	–	–
COc1c(NC2CC2)nc(C2CC2)nc1N1CCSCC1	0.398	2.5	–	–	6.47
Cc1c(NCCc2cccs2)nc(C2CC2)nc1NC1CC1	0.079	2.5	2.57	–	–
Cc1c(NC2CC2)nc(C2CC2)nc1N1CCC(C)CC1	0.016	0.63	2.8	–	–
Cc1c(NC2CC2)nc(C2CC2)nc1N1CCOCC1	–	0.79	1.45	< 50	–
Cc1c(NCc2c(F)cccc2F)nc(C2CC2)nc1NC1CC1	0.063	2	2.38	–	–
Cc1c(NC2CC2)nc(C2CC2)nc1N1CCC(Cc2ccccc2)CC1	0.79	2	3.89	–	–
Cc1c(NC2CC2)nc(CC2CC2)nc1N1CCCCCC1	0.126	2	–	–	–
Brc1c(NC2CC2)nc(C2CC2)nc1N1CCCCCC1	0.316	0.63	–	–	6.21
Nc1c(NC2CC2)nc(C2CC2)nc1N1CCCCCC1	0.079	0.79	–	–	7.15
Cc1c(NC2CC2)nc(C2CC2)nc1N1CCC(O)CC1	0.501	4	1.2	–	–
Cc1c(NC2(C)CC2)nc(C2CC2)nc1N1CCCCCC1	0.01	6.3	–	–	–
Cc1c(NC2CC2)nc(C2CC2)nc1N1CCCC1	0.1	1.6	2.36	–	–
Cc1c(N[C@H]2C[C@@H]2C)nc(C2CC2)nc1N1CCCCCC1	0.0079	7.9	–	–	–
